pKd: −log10 of the molar value.
How the values were obtained:
[1] = biological target: T1, CofC (Oligotropha carboxidovorans) (Afipia carboxidovorans, UniProt B6JBS5); assay: combined CofC/D assay, LC-MS; assay type: biochemical; conditions: competitive mixture of 3-PG, 2-PL, PEP (0.5 mM each), 2 mM GTP, 2 mM MgCl2, FO, Mjan-CofD, pH 7.4
T1 construct: gene fbiD; N-terminal His6, E. coli
T1 sequence (B6JBS5 1-237): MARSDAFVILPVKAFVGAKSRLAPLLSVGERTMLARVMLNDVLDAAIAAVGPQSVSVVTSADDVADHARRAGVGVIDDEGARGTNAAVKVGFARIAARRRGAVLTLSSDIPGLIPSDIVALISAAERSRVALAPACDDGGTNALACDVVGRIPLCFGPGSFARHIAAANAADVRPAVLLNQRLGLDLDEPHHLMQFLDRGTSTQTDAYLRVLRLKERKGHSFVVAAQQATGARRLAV

[2] = biological target: T2, Msmeg-FbiD (Mycolicibacterium smegmatis, UniProt A0QUZ4); assay: combined CofC/D assay, LC-MS; assay type: biochemical; conditions: competitive mixture of 3-PG, 2-PL, PEP (0.5 mM each), 2 mM GTP, 2 mM MgCl2, FO, Mjan-CofD, pH 7.4
T2 construct: N-terminal His6, full length, E. coli (plasmid pMH10)
T2 sequence (A0QUZ4 whole entry): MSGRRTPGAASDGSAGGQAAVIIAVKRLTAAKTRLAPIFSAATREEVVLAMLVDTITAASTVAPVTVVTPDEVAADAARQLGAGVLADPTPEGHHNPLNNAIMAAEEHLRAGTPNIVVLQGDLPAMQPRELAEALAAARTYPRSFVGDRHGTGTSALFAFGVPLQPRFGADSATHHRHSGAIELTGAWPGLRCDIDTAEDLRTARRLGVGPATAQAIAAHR

[3] = biological target: T3, CofC (Paracoccus denitrificans) (Paracoccus denitrificans, UniProt A1B131); assay: combined CofC/D assay, LC-MS; assay type: biochemical; conditions: competitive mixture of 3-PG, 2-PL, PEP (0.5 mM each), 2 mM GTP, 2 mM MgCl2, FO, Mjan-CofD, pH 7.4
T3 construct: gene Pden_1117; N-terminal His6, E. coli
T3 sequence (A1B131 1-216): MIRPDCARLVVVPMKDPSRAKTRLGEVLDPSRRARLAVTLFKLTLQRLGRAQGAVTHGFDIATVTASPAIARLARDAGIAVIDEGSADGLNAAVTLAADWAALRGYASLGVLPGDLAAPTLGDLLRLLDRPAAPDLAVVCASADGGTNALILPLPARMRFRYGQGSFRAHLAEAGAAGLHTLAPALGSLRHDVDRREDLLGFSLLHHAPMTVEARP

[4] = biological target: T4, CofC (Archaeon GBE54128) (archaeon BMS3Bbin15, UniProt A0A2H6JTR5); assay: combined CofC/D assay, LC-MS; assay type: biochemical; conditions: competitive mixture of 3-PG, 2-PL, PEP ([…] each), […] GTP, […] MgCl2, FO, Mjan-CofD, pH […]
T4 construct: N-terminal His6, E. coli; synthetic gene
T4 sequence (A0A2H6JTR5 1-207): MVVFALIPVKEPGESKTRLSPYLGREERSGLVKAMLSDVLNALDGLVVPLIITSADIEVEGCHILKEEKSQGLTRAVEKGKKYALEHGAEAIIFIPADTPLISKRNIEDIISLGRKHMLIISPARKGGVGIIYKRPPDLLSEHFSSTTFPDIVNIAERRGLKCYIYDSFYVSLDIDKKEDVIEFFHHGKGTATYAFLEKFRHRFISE

[5] = biological target: T5, CofC (Ca. E. factor) (Candidatus Entotheonella factor, UniProt W4LIL2); assay: combined CofC/D assay, LC-MS; assay type: biochemical; conditions: competitive mixture of 3-PG, 2-PL, PEP (0.5 mM each), 2 mM GTP, 2 mM MgCl2, FO, Mjan-CofD, pH 7.4
T5 construct: gene ETSY1_21445; N-terminal His6, E. coli
T5 sequence (W4LIL2 entry or part of it): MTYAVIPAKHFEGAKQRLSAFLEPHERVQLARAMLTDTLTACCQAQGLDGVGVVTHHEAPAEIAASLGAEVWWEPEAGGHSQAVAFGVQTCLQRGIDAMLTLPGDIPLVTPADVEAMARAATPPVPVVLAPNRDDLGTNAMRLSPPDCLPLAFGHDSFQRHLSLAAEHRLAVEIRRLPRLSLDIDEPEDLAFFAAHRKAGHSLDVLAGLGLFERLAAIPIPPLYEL

[6] = biological target: T6, CofC (Ca. H. archaeon) (Candidatus Hydrothermarchaeota archaeon, UniProt A0A497JEJ7); assay: combined CofC/D assay, LC-MS; assay type: biochemical; conditions: competitive mixture of 3-PG, 2-PL, PEP ([…] each), […] GTP, […] MgCl2, FO, Mjan-CofD, pH […]
T6 construct: N-terminal His6, E. coli; synthetic gene; full organism name only in supplement
T6 sequence (A0A497JEJ7 1-207): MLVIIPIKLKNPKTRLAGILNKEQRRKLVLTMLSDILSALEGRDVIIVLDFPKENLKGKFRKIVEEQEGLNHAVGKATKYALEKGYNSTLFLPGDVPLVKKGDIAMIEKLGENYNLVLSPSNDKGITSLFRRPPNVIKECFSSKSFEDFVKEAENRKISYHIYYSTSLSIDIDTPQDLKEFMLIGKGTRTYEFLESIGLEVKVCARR

[7] = biological target: T7, CofC (Thermomicrobium roseum) (Thermomicrobium roseum, UniProt B9L4T8); assay: combined CofC/D assay, LC-MS; assay type: biochemical; conditions: competitive mixture of 3-PG, 2-PL, PEP (0.5 mM each), 2 mM GTP, 2 mM MgCl2, FO, Mjan-CofD, pH 7.4
T7 construct: gene fbiD; N-terminal His6, E. coli
T7 sequence (B9L4T8 1-200): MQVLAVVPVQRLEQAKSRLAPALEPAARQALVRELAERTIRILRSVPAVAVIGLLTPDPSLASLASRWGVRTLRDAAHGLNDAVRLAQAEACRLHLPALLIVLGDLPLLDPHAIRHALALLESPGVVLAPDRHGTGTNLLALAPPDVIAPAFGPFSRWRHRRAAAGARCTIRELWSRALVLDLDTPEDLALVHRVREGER

[8] = biological target: T8, Mmaz-CofC (Methanosarcina mazei, UniProt Q8PU52); assay: combined CofC/D assay, LC-MS; assay type: biochemical; conditions: competitive mixture of 3-PG, 2-PL, PEP (0.5 mM each), 2 mM GTP, 2 mM MgCl2, FO, Mjan-CofD, pH 7.4
T8 construct: N-terminal His6, E. coli
T8 sequence (Q8PU52 1-208): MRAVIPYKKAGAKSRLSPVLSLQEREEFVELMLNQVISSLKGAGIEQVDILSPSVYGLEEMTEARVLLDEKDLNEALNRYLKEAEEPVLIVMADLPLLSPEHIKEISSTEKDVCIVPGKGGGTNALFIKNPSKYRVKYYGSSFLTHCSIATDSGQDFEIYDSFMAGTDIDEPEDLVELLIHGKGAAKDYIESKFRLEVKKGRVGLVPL

[9] = biological target: T9, Mrhiz-CofC (Mycetohabitans rhizoxinica, UniProt E5ASS2); assay: combined CofC/D assay, LC-MS; assay type: biochemical; conditions: competitive mixture of 3-PG, 2-PL, PEP (0.5 mM each), 2 mM GTP, 2 mM MgCl2, FO, cognate CofD, pH 7.4
T9 construct: N-terminal His6, full length, E. coli (plasmid pFS03)
T9 sequence (E5ASS2 6-221): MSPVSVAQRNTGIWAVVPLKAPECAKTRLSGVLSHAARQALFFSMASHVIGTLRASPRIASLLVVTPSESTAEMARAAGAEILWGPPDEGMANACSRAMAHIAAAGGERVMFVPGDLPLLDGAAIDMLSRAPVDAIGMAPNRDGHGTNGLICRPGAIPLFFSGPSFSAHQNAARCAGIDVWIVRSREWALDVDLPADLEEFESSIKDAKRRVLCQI

[10] = biological target: T10, Mjan-CofD (Methanocaldococcus jannaschii, UniProt Q58653); assay: combined CofC/D assay, LC-MS; assay type: biochemical; conditions: coupled to CofC homologs forming LPPG, EPPG or GPPG; 2 mM GTP, 2 mM MgCl2, pH 7.4
T10 construct: N-terminal His6, E. coli
T10 sequence (Q58653 whole entry): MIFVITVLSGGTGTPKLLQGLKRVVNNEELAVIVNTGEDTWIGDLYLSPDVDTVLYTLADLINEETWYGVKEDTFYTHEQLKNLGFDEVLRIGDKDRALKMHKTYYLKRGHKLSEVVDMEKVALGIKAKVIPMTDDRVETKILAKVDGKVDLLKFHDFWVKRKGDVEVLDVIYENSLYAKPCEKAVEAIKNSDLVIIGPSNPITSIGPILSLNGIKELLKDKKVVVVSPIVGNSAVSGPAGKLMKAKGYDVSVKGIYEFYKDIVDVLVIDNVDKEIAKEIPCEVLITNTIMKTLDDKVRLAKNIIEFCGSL

[11] = biological target: T11, CofC (nano-DSF); assay: nano-DSF; assay type: binding; conditions: GPPG co-purified with the enzyme may be present
T11 construct: N-terminal His6, E. coli; Results place the test beside MycB3-CofC, Discussion names M. rhizoxinica

## C[C@H](OP(=O)(O)O)C(=O)O [2-PL]
[1]
  combined CofC/D assay, LC-MS: For all CofC-related enzymes analyzed, 2-PL was used most efficiently
[2]
  combined CofC/D assay, LC-MS: the M. smegmatis FbiD tested in this study preferred 2-PL as substrate
[3]
  combined CofC/D assay, LC-MS: For all CofC-related enzymes analyzed, 2-PL was used most efficiently
[4]
  combined CofC/D assay, LC-MS: 2-PL was the best substrate of all three enzymes
[5]
  combined CofC/D assay, LC-MS: For all CofC-related enzymes analyzed, 2-PL was used most efficiently
[6]
  combined CofC/D assay, LC-MS: 2-PL was the best substrate of all three enzymes
[7]
  combined CofC/D assay, LC-MS: For all CofC-related enzymes analyzed, 2-PL was used most efficiently
[8]
  combined CofC/D assay, LC-MS: For all CofC-related enzymes analyzed, 2-PL was used most efficiently

## O=C(O)[C@H](O)COP(=O)(O)O [3-PG]
[4]
  combined CofC/D assay, LC-MS: all of those enzymes accepted 3-PG as substrates
[9]
  combined CofC/D assay, LC-MS: combined with their cognate CofD, the apparent substrate specificity shifted almost completely toward 3-PG
[6]
  combined CofC/D assay, LC-MS: all of those enzymes accepted 3-PG as substrates

## O=c1nc2n(C[C@H](O)[C@H](O)[C@H](O)CO)c3cc(O)ccc3cc-2c(=O)[nH]1 [FO, 7,8-didemethyl-8-hydroxy-5-deazariboflavin]
[10]
  combined CofC/D assay, LC-MS: Distinct derivatives of F420-0 were produced via biochemical reaction of purified CofC and CofD

## Nc1nc2c(ncn2[C@@H]2O[C@H](COP(=O)(O)OP(=O)(O)OP(=O)(O)O)[C@@H](O)[C@H]2O)c(=O)[nH]1 [GTP]
[11]
  pKd: > 4.70
